Assay results from ChEMBL document CHEMBL5465560, “Selectivity Literature for EUbOPEN Chemogenomic Library” (2024).
pIC50: −log10 of the molar value.

Key:
[1] = molecular target: Mitogen-activated protein kinase 1 (Homo sapiens, UniProt P28482); test: Selectivity interaction (KinomeScan (DiscoverX)) EUB0001049a MAPK1; conditions: at 1 µM
[2] = molecular target: Calcium/calmodulin-dependent protein kinase type II subunit delta (Homo sapiens) (UniProt Q13557); test: Selectivity interaction (ActivX KiNativ screen (kinase selectivity in THP-1 cell lysates)) EUB0000639a CAMK2D; format: subcellular; conditions: lysate, at 0.01 µM
[3] = molecular target: T1, TGF-beta receptor type-1 (Homo sapiens) (UniProt P36897); test: Selectivity interaction (Kinase panel (Invitrogen)) EUB0000639a TGFBR1; conditions: at 200 nM
T1 sequence (whole entry): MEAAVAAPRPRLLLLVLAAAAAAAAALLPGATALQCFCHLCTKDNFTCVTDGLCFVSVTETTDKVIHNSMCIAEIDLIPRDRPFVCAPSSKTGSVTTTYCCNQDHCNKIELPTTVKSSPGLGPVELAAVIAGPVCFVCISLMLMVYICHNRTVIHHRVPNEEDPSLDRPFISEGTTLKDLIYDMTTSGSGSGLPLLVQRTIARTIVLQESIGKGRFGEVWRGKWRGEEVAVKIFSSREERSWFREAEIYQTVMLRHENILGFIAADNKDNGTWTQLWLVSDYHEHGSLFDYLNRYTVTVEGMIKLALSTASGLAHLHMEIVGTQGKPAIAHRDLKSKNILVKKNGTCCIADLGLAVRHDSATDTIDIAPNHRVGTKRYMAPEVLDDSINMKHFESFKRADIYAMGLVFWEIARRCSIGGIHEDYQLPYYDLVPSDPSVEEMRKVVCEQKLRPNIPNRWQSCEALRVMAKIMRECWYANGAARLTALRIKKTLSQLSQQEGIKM

[4] = molecular target: T2, Cyclin-dependent kinase 11A (Homo sapiens) (UniProt Q9UQ88); test: Selectivity interaction (ActivX KiNativ screen (kinase selectivity in THP-1 cell lysates)) EUB0000639a CDK11A; format: subcellular; conditions: lysate, at 5 µM
T2 sequence (whole entry): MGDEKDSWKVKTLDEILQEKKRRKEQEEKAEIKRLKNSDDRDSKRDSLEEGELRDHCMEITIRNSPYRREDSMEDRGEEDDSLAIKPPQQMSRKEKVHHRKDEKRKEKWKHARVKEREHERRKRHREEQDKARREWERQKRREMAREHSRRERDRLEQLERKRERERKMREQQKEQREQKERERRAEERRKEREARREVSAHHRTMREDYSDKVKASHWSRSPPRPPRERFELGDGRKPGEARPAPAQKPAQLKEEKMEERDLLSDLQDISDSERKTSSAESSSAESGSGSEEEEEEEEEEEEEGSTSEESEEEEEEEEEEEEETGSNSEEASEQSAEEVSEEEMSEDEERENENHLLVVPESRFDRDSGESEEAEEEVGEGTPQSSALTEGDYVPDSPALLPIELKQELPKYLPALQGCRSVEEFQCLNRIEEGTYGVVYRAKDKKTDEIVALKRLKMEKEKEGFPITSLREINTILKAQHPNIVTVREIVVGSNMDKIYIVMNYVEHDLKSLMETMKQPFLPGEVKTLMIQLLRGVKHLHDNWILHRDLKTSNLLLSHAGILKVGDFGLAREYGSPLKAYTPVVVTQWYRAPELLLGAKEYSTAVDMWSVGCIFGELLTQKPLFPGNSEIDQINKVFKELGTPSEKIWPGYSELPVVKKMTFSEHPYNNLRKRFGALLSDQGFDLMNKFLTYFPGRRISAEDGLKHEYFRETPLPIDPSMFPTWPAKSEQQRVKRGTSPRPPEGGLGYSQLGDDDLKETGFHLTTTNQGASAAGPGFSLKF

[5] = molecular target: DNA mismatch repair protein Msh6 (Homo sapiens) (UniProt P52701); test: Selectivity interaction (PWWP, WD40, and Tudor domain panel (DSLS measurements, literature)) EUB0000270b MSH6
[6] = molecular target: Histone acetyltransferase KAT2A (Homo sapiens) (UniProt Q92830); test: Selectivity interaction (Bromodomain panel (DSF asssay)) EUB0000270b KAT2A
[7] = molecular target: Non-receptor tyrosine-protein kinase TYK2 (Homo sapiens, UniProt P29597)
[8] = molecular target: Fibroblast growth factor receptor 4 (Homo sapiens, UniProt P22455); test: Selectivity interaction (KinomeScan (DiscoverX)) EUB0000695a FGFR4; conditions: at 100 nM
[9] = molecular target: T3, Calcium/calmodulin-dependent protein kinase type IV (Homo sapiens) (UniProt Q16566); test: Selectivity interaction (ProQinase) EUB0000171b CAMK4
T3 sequence (whole entry): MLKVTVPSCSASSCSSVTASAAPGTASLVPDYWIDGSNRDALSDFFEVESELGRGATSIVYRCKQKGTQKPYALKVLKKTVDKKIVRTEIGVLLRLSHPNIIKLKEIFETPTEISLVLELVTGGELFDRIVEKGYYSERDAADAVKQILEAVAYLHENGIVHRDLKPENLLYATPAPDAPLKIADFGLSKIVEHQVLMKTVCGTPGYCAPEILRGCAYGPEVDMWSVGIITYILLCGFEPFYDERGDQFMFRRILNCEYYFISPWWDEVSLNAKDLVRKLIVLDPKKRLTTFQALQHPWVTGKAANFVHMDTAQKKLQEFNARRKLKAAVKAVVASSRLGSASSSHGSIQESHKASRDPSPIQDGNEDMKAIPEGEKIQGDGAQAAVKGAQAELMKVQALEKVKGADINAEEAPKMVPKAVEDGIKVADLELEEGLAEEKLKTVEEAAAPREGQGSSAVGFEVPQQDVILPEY

[10] = molecular target: Activated CDC42 kinase 1 (Homo sapiens, UniProt Q07912); test: Selectivity interaction (ActivX KiNativ screen (ex vivo kinase selectivity in human PBMCs)) EUB0001619a TNK2; format: cell-based; conditions: PBMC, at 1 µM
[11] = molecular target: Glycogen synthase kinase-3 beta (Homo sapiens, UniProt P49841); test: Selectivity interaction (SelectScreen profiling (Invitrogen)) EUB0000607a GSK3B; conditions: at 2 µM
[12] = molecular target: T3, Calcium/calmodulin-dependent protein kinase type IV (Homo sapiens); test: Selectivity interaction (KinomeScan (DiscoverX)) EUB0000607a CAMK4; conditions: at 10 µM
[13] = molecular target: Mitogen-activated protein kinase 9 (Homo sapiens, UniProt P45984); test: Selectivity interaction (Kinase panel (DSF assay)) EUB0001558a MAPK9
Chain of Mitogen-activated protein kinase 9 (P45984 whole entry, looked up): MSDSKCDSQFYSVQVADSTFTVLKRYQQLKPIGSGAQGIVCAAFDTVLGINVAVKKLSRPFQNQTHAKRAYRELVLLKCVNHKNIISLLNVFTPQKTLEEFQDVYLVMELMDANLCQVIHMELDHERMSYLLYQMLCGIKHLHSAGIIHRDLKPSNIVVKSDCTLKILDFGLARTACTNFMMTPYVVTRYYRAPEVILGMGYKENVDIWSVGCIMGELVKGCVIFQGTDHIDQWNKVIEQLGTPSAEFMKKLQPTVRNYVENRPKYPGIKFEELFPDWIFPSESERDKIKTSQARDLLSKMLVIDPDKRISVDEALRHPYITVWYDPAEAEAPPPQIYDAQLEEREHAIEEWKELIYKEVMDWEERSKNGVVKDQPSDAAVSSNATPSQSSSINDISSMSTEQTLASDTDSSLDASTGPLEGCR

Chain of Calcium/calmodulin-dependent protein kinase type II subunit delta (Homo sapiens) (Q13557 whole entry): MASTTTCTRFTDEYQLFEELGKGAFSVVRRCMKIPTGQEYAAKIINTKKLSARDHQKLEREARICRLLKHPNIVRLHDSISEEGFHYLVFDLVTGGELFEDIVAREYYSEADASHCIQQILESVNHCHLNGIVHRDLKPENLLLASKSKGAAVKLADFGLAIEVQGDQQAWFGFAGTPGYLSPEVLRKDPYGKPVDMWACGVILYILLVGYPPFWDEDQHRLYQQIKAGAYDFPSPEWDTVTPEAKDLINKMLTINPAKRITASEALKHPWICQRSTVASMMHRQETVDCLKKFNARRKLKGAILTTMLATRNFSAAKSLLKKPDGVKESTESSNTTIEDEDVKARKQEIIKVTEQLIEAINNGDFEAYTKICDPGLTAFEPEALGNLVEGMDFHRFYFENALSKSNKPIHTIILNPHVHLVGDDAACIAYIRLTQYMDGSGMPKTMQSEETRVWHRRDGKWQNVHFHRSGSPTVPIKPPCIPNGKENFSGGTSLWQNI
Chain of DNA mismatch repair protein Msh6 (Homo sapiens) (P52701 whole entry, the tested form may be a part): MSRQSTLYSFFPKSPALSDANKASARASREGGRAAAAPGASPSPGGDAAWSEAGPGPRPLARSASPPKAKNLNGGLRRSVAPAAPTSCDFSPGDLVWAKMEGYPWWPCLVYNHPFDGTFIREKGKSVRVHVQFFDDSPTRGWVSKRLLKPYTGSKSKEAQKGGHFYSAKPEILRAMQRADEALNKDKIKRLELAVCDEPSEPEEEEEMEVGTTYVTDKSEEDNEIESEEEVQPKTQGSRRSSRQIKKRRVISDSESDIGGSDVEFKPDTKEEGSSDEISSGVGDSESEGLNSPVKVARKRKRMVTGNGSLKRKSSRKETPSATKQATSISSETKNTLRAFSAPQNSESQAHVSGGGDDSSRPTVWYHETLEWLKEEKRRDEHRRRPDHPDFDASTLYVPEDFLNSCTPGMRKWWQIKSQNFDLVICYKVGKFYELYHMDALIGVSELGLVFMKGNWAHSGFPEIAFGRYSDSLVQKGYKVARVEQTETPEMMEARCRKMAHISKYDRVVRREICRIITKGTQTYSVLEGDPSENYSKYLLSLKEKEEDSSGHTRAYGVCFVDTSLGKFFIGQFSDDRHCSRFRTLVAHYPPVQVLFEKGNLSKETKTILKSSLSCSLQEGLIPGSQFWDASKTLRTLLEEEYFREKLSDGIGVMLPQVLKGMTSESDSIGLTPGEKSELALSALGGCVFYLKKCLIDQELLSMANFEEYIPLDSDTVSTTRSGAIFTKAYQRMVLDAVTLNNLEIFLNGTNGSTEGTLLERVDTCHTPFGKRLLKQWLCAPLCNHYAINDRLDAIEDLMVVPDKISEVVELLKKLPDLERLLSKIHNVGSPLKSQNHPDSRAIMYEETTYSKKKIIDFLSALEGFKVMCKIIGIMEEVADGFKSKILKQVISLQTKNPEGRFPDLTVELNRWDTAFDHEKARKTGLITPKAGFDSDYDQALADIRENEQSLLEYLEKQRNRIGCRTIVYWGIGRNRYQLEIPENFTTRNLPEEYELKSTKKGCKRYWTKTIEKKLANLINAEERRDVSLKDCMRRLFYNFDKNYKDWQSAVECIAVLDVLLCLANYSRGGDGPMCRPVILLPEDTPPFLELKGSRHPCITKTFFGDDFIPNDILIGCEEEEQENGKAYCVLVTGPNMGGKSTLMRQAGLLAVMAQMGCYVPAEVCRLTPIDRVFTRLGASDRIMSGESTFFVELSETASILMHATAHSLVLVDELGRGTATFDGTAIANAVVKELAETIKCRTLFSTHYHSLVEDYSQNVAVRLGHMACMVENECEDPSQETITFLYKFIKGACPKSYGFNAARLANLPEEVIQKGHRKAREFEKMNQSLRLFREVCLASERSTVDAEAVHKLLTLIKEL
Chain of Fibroblast growth factor receptor 4 (P22455 22-802 limits assumed): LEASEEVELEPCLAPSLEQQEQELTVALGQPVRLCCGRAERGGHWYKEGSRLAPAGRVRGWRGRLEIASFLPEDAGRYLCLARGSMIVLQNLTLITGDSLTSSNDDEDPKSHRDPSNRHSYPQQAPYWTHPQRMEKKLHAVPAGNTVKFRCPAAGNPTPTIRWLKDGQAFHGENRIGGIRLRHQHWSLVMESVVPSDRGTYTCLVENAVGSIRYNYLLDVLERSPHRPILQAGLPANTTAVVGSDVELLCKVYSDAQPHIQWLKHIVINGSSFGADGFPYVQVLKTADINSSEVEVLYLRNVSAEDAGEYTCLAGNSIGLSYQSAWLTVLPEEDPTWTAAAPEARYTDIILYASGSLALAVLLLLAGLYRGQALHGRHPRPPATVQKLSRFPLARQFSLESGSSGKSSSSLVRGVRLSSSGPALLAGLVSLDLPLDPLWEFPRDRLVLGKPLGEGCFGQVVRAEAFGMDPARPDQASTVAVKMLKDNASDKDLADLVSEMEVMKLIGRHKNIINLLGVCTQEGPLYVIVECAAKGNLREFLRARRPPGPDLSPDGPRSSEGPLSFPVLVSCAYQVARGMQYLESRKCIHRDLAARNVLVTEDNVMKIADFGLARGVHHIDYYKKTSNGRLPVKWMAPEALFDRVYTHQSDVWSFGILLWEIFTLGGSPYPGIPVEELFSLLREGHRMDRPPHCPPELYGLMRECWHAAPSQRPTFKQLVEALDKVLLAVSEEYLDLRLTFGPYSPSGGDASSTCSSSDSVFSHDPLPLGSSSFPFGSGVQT
Chain of Mitogen-activated protein kinase 1 (P28482 whole entry): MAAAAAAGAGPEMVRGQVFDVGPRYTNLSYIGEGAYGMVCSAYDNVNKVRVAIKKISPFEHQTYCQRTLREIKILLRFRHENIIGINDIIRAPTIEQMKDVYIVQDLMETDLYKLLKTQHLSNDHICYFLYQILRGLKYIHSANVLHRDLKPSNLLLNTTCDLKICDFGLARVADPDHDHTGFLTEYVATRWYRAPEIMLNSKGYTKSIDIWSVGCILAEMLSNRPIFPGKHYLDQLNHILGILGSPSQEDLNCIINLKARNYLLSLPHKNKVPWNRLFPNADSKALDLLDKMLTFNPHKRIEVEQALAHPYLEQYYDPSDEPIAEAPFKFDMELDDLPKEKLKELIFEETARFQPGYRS
Chain of Non-receptor tyrosine-protein kinase TYK2 (P29597 whole entry): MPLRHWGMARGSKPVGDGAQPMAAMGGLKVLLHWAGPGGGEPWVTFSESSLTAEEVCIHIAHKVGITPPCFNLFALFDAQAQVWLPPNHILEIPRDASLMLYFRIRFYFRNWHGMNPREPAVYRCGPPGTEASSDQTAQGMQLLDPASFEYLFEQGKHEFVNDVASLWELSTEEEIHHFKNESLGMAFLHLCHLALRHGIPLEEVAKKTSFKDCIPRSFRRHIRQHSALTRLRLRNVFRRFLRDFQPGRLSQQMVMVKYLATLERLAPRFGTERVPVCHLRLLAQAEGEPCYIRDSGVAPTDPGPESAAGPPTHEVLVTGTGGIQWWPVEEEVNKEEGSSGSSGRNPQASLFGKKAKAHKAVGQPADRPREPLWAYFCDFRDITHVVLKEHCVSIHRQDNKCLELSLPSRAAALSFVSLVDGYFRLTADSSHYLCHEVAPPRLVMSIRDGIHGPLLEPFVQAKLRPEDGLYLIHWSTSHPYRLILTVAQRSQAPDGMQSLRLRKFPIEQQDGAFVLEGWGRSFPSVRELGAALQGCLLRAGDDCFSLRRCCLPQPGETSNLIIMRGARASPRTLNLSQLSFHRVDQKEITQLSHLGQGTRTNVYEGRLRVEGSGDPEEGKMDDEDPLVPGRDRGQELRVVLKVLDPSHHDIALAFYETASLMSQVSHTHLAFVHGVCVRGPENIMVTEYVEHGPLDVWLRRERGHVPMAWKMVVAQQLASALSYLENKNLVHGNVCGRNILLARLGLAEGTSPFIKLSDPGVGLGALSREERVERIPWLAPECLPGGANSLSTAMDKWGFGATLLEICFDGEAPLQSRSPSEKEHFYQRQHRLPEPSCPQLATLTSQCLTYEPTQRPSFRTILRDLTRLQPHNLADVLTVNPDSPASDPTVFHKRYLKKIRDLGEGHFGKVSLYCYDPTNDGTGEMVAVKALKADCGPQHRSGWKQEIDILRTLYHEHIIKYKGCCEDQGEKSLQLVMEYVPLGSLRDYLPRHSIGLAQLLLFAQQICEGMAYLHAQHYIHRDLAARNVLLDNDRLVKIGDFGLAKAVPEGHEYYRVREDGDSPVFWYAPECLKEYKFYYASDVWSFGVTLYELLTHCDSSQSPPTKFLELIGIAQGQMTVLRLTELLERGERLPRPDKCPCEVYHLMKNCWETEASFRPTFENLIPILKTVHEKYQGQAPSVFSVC
Chain of Glycogen synthase kinase-3 beta (P49841 whole entry, looked up): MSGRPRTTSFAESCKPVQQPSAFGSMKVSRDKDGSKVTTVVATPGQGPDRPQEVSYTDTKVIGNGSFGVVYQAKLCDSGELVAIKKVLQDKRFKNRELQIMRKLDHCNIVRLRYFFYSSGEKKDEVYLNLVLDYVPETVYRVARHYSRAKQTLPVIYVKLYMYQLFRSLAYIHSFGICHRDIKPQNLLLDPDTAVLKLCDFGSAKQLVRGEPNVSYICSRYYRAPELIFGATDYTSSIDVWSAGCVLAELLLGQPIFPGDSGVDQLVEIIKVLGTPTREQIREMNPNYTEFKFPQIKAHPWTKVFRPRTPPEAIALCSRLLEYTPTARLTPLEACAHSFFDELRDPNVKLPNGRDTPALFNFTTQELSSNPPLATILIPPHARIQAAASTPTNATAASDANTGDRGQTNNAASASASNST

SMILES: COc1cc(Nc2nc(C)cc(-c3cnn4nc(OC)ccc34)n2)cc(C(F)(F)F)c1
- % of control [1]: 100%

SMILES: CC[C@@H]1[C@H](F)C(=O)N[C@@H]1COc1nccc2cc(C(N)=O)c(OC)cc12 [ZIMLOVISERTIB]
- % of inhibition [2]: 3.3%
- % of inhibition [3]: 27.1%
- % of inhibition [4]: -20.8%

SMILES: Cc1cc(CN)cc(C)c1-c1ncn(C)c1-c1cncn1C
- dTagg [5]: -0.2 K
- dTM [6]: -2.29 K

SMILES: CCc1cccc(CC)c1NC(=O)c1nn(C)c2c1CCc1cnc(Nc3ccc(C(=O)NC4CCN(C)CC4)cc3OC(F)(F)F)nc1-2
- pIC50 [7]: < 5.00

SMILES: Cc1cc(F)c(C(=O)Nc2cccc(-c3nncn3C(C)C)n2)cc1-n1cnc(C2CC2)c1
- % of control [8]: 100%

SMILES: C=CC(=O)Nc1cccc(C(=O)Nc2ccc(Nc3cc(-c4[nH]c(SC)nc4C)ccn3)cc2)c1
- % of control ([9]; at 1 µM): 110%
- % of control ([9]; at 5 µM): 91%

SMILES: N#Cc1cccc(-c2c[nH]c3ncnc(N4CCOCC4)c23)c1
- % of inhibition [10]: 8%

SMILES: CNC(=O)Nc1ccc(-c2nc(N3CC4CCC(C3)O4)c3cnn(C4CCC5(CC4)OCCO5)c3n2)cc1
- % of inhibition [11]: 1%
- % of control [12]: 100%

SMILES: CC(C)(O)[C@H](F)CN1Cc2cc(NC(=O)c3cnn4cccnc34)c(N3CCOCC3)cc2C1=O
- dTM [13]: 1.6 K
